Patent publication US10479795B2 (Incyte Corporation, priority 2016, dated 2019)
Structures can show the parent of a compound that is named as a salt. Where two headings read alike, the source gives them in different places.

How the values were obtained:
[1] = test system: Phosphorylated Ribosomal Protein S6 (RPS6); test: THP-1 RPS6 ELISA Assay; format: cell-based, Human; conditions: THP-1 cells, read-out: PI3Kγ_THP1_RPS6_ELISA IC50
Summary of the method: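 Serum-starved THP-1 cells were preincubated with a concentration range of compound for 2 h at 37 °C, then stimulated with 10 nM MCP-1 for 15 min. Phospho-RPS6 in lysates was quantified by ELISA at 450 nm. IC50 came from percent inhibition versus log inhibitor concentration.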

[2] = target: PI3Kγ (p110γ) Recombinant Human Protein (Homo sapiens (Human), UniProt P48736); test: PI3K-γ Scintillation Proximity Assay; format: biochemical; conditions: read-out: PI3Kγ IC50
PI3Kγ (p110γ) Recombinant Human Protein, sequence (P48736 whole entry): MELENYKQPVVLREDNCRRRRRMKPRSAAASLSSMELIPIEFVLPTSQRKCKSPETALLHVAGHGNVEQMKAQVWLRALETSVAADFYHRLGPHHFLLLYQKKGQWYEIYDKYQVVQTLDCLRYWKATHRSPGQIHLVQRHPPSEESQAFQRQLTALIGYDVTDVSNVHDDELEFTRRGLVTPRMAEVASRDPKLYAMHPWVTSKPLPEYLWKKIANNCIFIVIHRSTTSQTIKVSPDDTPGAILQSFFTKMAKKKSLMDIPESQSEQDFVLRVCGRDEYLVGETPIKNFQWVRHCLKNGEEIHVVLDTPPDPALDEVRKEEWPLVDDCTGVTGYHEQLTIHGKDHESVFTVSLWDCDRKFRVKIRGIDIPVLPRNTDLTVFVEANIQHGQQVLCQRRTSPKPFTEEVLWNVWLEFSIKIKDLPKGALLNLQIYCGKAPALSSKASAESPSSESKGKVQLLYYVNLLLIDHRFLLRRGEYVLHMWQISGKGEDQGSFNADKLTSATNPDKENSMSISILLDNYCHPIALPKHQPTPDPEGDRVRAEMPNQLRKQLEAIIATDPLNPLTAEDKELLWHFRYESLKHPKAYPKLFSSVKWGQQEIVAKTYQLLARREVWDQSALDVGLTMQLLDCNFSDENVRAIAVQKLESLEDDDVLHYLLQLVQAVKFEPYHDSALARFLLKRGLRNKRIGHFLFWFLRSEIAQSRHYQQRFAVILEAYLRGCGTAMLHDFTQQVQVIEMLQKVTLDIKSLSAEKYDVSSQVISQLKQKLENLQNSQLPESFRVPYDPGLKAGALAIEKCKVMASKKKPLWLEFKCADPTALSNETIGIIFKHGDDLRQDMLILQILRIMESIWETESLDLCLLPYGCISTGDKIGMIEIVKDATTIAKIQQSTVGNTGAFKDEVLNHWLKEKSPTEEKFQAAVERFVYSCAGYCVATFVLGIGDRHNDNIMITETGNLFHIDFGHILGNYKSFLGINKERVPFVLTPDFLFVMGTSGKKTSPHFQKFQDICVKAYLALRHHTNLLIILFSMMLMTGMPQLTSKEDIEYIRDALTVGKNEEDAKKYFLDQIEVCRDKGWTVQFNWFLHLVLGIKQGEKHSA
Summary of the method: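 Recombinant human p110γ assayed at room temperature in 20 mM MOPS pH 6.7, 10 mM MgCl2, 5 mM DTT, 0.03% CHAPS, 2% DMSO, with 20 μM PIP2 and 2 μM ATP plus [γ-33P]ATP. Product captured on WGA SPA beads overnight and counted; IC50 fitted from % of solvent-control activity versus log inhibitor concentration.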

[3] = target: PI3Kδ (p110δ/p85α) Recombinant Human Protein (Homo sapiens (Human), UniProt O00329); test: PI3Kδ Scintillation Proximity Assay; format: biochemical
PI3Kδ (p110δ/p85α) Recombinant Human Protein, sequence (O00329 whole entry): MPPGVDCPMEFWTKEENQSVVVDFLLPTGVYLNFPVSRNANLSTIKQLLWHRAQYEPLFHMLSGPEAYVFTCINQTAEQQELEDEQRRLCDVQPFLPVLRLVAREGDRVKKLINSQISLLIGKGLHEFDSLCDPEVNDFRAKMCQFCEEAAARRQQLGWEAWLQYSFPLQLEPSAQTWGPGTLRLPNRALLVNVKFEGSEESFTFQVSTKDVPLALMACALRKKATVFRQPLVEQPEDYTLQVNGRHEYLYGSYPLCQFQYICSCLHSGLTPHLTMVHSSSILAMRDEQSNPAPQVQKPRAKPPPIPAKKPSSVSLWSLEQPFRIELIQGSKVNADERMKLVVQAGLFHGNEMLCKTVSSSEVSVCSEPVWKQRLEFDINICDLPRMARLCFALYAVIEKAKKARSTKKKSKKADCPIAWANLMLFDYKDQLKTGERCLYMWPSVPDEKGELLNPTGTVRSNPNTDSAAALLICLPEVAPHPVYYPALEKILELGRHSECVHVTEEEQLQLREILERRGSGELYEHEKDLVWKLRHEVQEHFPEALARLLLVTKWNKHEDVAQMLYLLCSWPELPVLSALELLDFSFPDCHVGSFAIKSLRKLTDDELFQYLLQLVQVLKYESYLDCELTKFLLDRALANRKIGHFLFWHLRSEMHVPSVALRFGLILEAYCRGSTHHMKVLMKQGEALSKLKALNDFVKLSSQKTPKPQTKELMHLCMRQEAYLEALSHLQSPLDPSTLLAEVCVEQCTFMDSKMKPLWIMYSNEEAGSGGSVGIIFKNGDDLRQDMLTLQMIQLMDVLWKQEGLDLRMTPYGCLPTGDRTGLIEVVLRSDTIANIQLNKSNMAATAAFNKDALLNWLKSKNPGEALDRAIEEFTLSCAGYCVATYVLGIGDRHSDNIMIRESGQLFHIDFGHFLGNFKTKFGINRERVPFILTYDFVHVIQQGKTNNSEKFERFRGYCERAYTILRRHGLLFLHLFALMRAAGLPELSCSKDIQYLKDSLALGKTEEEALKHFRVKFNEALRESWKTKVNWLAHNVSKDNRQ
PI3Kδ (p110δ/p85α) Recombinant Human Protein, sequence (P27986 whole entry partner): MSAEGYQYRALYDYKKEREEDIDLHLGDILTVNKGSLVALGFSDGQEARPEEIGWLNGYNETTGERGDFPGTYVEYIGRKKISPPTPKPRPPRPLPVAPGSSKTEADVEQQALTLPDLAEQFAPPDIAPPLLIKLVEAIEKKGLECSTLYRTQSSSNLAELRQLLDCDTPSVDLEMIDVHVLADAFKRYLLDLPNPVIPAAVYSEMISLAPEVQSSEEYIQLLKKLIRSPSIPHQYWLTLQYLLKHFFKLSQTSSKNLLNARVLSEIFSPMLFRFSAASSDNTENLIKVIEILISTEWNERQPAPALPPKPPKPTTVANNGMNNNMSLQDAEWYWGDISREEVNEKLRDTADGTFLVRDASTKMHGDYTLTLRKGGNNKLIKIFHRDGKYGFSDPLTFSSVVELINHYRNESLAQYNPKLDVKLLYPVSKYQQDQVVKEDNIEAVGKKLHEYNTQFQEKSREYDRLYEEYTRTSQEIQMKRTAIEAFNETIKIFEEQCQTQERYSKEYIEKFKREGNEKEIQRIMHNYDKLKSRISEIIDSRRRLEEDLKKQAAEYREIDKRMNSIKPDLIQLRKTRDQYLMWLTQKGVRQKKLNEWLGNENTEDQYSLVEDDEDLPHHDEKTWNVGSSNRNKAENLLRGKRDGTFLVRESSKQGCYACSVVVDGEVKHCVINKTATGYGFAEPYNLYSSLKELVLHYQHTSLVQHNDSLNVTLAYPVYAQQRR
Summary of the method: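 Recombinant human p110δ/p85α (3.4 nM) phosphorylates 20 μM di-octanoyl PIP2 using 2 μM ATP spiked with [γ-33P]ATP, 120 min, room temperature, pH 6.7, 2% DMSO. Product measured by scintillation proximity; IC50 from dose-response fit.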

SMILES	IC50 ([1]; Homo sapiens) [nM]	IC50 [2] [nM]	IC50 [3] [nM]	IC50 [1] [nM]
[2H]C([2H])([2H])c1ccc(S(=O)(=O)N(C)C23CCC(C#N)(C2)C3)cc1-c1cnc2c(N)ncnn12 [Example 261, 3-(4-Aminoimidazo[2,1-f][1,2,4]triazin-7-yl)-N-(4-cyanobicyclo[2.1.1]hexan-1-yl)-N-methyl-4-(methyl-d3)benzenesulfonamide]	< 100	< 100	500 to 2000	–
Cc1cn2c(-c3cc(S(=O)(=O)NC45CCC(CO)(C4)C5)ccc3C)cnc2c(N)n1 [Example 262, 3-(8-Amino-6-methylimidazo[1,2-a]pyrazin-3-yl)-N-(4-(hydroxymethyl)bicyclo[2.1.1]hexan-1-yl)-4-methylbenzenesulfonamide]	100 to 500	< 100	< 100	–
Cc1cn2c(-c3cc(S(=O)(=O)NC45CCC(C#N)(C4)C5)ccc3C)cnc2c(N)n1 [Example 263, 3-(8-Amino-6-methylimidazo[1,2-a]pyrazin-3-yl)-N-(4-cyanobicyclo[2.1.1]hexan-1-yl)-4-methylbenzenesulfonamide trifluoroacetate salt]	100 to 500	< 100	100 to 500	–
Cc1cn2c(-c3cc(S(=O)(=O)NC45CC(C#N)(C4)C5)ccc3C)cnc2c(N)n1 [Example 264, 3-(8-Amino-6-methylimidazo[1,2-a]pyrazin-3-yl)-N-(3-cyanobicyclo[1.1.1]pentan-1-yl)-4-methylbenzenesulfonamide trifluoroacetate salt]	100 to 500	< 100	100 to 500	–
Cc1nc(N)c2ncc(-c3cc(S(=O)(=O)NC45CCC(C#N)(C4)C5)ccc3C)n2n1 [Example 265, 3-(4-Amino-2-methylimidazo[1,2-f][1,2,4]triazin-7-yl)-N-(4-cyanobicyclo[2.1.1]hexan-1-yl)-4-methylbenzenesulfonamide trifluoroacetate salt]	–	< 100	< 100	< 100
Cc1nc(N)c2ncc(-c3cc(S(=O)(=O)NC45CCC(CO)(C4)C5)ccc3C)n2n1 [Example 268, 3-(4-Amino-2-methylimidazo[1,2-f][1,2,4]triazin-7-yl)-N-(4-(hydroxymethyl)bicyclo[2.1.1]hexan-1-yl)-4-methylbenzenesulfonamide trifluoroacetate salt]	–	< 100	100 to 500	100 to 500
Cc1nc(N)c2ncc(-c3cc(S(=O)(=O)NCC4(O)CCC4)ccc3C)n2n1 [Example 269, 3-(4-Amino-2-methylimidazo[1,2-f][1,2,4]triazin-7-yl)-N-((1-hydroxycyclobutyl)methyl)-4-methylbenzenesulfonamide trifluoroacetate salt]	–	< 100	100 to 500	100 to 500
Cc1nc(N)c2ncc(-c3cc(S(=O)(=O)NC45CC(C#N)(C4)C5)ccc3C)n2n1 [Example 270, 3-(4-Amino-2-methylimidazo[1,2-f][1,2,4]triazin-7-yl)-N-(3-cyanobicyclo[1.1.1]pentan-1-yl)-4-methylbenzenesulfonamide trifluoroacetate salt]	–	< 100	100 to 500	< 100
Cc1nc(N)c2ncc(-c3cc(S(=O)(=O)N[C@H]4CC[C@](C)(O)CC4)ccc3C)n2n1 [Example 271, 3-(4-amino-2-methylimidazo[1,2-f][1,2,4]triazin-7-yl)-N-((1r,4r)-4-hydroxy-4-methylcyclohexyl)-4-methylbenzenesulfonamide trifluoroacetate salt]	–	< 100	100 to 500	< 100
Cc1nc(N)c2ncc(-c3cc(S(=O)(=O)N[C@H]4C[C@H](C#N)C4)ccc3C)n2n1 [Example 272, 3-(4-amino-2-methylimidazo[1,2-f][1,2,4]triazin-7-yl)-N-((1r,3r)-3-cyanocyclobutyl)-4-methylbenzenesulfonamide trifluoroacetate salt]	–	< 100	100 to 500	100 to 500
Cc1nc(N)c2ncc(-c3cc(S(=O)(=O)NCC(C)(C)O)ccc3C)n2n1 [Example 273, 3-(4-amino-2-methylimidazo[1,2-f][1,2,4]triazin-7-yl)-N-(2-hydroxy-2-methylpropyl)-4-methylbenzenesulfonamide trifluoroacetate salt]	–	< 100	500 to 2000	100 to 500
Cc1ccc(S(=O)(=O)NC23CC(CO)(C2)C3)cc1-c1cnc2c(N)nc(C(F)(F)F)cn12 [Example 274, 3-(8-Amino-6-(trifluoromethyl)imidazo[1,2-a]pyrazin-3-yl)-N-(3-(hydroxymethyl)bicyclo[1.1.1]pentan-1-yl)-4-methylbenzenesulfonamide trifluoroacetate salt]	< 100	< 100	100 to 500	–
Cc1ccc(S(=O)(=O)NC23CCC(CO)(C2)C3)cc1-c1cnc2c(N)nc(C(F)(F)F)cn12 [Example 275, 3-(8-Amino-6-(trifluoromethyl)imidazo[1,2-a]pyrazin-3-yl)-N-(4-(hydroxymethyl)bicyclo[2.1.1]hexan-1-yl)-4-methylbenzenesulfonamide trifluoroacetate salt]	100 to 500	< 100	100 to 500	–
Cc1ccc(S(=O)(=O)NC23CC(CC#N)(C2)C3)cc1-c1cnc2c(N)nc(C(F)(F)F)cn12 [Example 276, 3-(8-Amino-6-(trifluoromethyl)imidazo[1,2-a]pyrazin-3-yl)-N-(3-(cyanomethyl)bicyclo[1.1.1]pentan-1-yl)-4-methylbenzenesulfonamide trifluoroacetate salt]	< 100	< 100	100 to 500	–
COC(=O)C12CC(NS(=O)(=O)c3ccc(C)c(-c4cnc5c(N)nc(C(F)(F)F)cn45)c3)(C1)C2 [Example 277, Methyl 3-(3-(8-amino-6-(trifluoromethyl)imidazo[1,2-a]pyrazin-3-yl)-4-methylphenylsulfonamido)bicyclo[1.1.1]pentane-1-carboxylate trifluoroacetate salt]	< 100	< 100	100 to 500	–
Cc1ccc(S(=O)(=O)NC23CC(C(F)F)(C2)C3)cc1-c1cnc2c(N)nc(C(F)(F)F)cn12 [Example 278, 3-(8-Amino-6-(trifluoromethyl)imidazo[1,2-a]pyrazin-3-yl)-N-(3-(difluoromethyl)bicyclo[1.1.1]pentan-1-yl)-4-methylbenzenesulfonamide trifluoroacetate salt]	< 100	< 100	100 to 500	–
Cc1ccc(S(=O)(=O)NC23CC(c4cnco4)(C2)C3)cc1-c1cnc2c(N)nc(C(F)(F)F)cn12 [Example 279, 3-(8-Amino-6-(trifluoromethyl)imidazo[1,2-a]pyrazin-3-yl)-4-methyl-N-(3-(oxazol-5-yl)bicyclo[1.1.1]pentan-1-yl)benzenesulfonamide trifluoroacetate salt]	< 100	< 100	< 100	–
Cc1ccc(S(=O)(=O)NC23CC(Cn4cncn4)(C2)C3)cc1-c1cnc2c(N)nc(C(F)(F)F)cn12 [Example 280, N-(3-((1H-1,2,4-triazol-1-yl)methyl)bicyclo[1.1.1]pentan-1-yl)-3-(8-amino-6-(trifluoromethyl)imidazo[1,2-a]pyrazin-3-yl)-4-methylbenzenesulfonamide]	100 to 500	< 100	100 to 500	–
Cc1ccc(S(=O)(=O)NC23CCC(C#N)(C2)C3)cc1-c1cnc2c(N)nc(C(F)(F)F)cn12 [Example 281, 3-(8-Amino-6-(trifluoromethyl)imidazo[1,2-a]pyrazin-3-yl)-N-(4-cyanobicyclo[2.1.1]hexan-1-yl)-4-methylbenzenesulfonamide trifluoroacetate salt]	100 to 500	< 100	100 to 500	–
Cc1ccc(S(=O)(=O)NC23CC(C(C)(C)O)(C2)C3)cc1-c1cnc2c(N)nc(C(F)(F)F)cn12 [Example 282, 3-(8-Amino-6-(trifluoromethyl)imidazo[1,2-a]pyrazin-3-yl)-N-(3-(2-hydroxypropan-2-yl)bicyclo[1.1.1]pentan-1-yl)-4-methylbenzenesulfonamide trifluoroacetate salt]	< 100	< 100	100 to 500	–
Cc1ccc(S(=O)(=O)NC23CC(Cn4cccn4)(C2)C3)cc1-c1cnc2c(N)nc(C(F)(F)F)cn12 [Example 283, N-(3-((1H-pyrazol-1-yl)methyl)bicyclo[1.1.1]pentan-1-yl)-3-(8-amino-6-(trifluoromethyl)imidazo[1,2-a]pyrazin-3-yl)-4-methylbenzenesulfonamide trifluoroacetate salt]	100 to 500	< 100	100 to 500	–
Cc1ccc(S(=O)(=O)NC23CC(Cn4ccnc4)(C2)C3)cc1-c1cnc2c(N)nc(C(F)(F)F)cn12 [Example 284, N-(3-((1H-imidazol-1-yl)methyl)bicyclo[1.1.1]pentan-1-yl)-3-(8-amino-6-(trifluoromethyl)imidazo[1,2-a]pyrazin-3-yl)-4-methylbenzenesulfonamide trifluoroacetate salt]	100 to 500	< 100	100 to 500	–
